Assay results taken from US9422240B2, “Partially saturated nitrogen-containing heterocyclic compound” (TAISHO PHARMACEUTICAL CO., LTD, priority 2012, dated 2016).

How the values were obtained:
human PHD2 [1] = target: T1, human PHD2 (Homo sapiens (Human), UniProt Q9GZT9); assay: Test 1: human PHD2 inhibitory activity, [14C]-2-oxoglutarate to [14C]-succinic acid radiometric assay with HIF-1α peptide; assay type: biochemical; details: test compound's concentration 1 μM; Test 1, [14C]-2-oxoglutarate radiometric assay; read-out: Percent inhibition (% at 1 μM)
T1 sequence (Q9GZT9 whole entry): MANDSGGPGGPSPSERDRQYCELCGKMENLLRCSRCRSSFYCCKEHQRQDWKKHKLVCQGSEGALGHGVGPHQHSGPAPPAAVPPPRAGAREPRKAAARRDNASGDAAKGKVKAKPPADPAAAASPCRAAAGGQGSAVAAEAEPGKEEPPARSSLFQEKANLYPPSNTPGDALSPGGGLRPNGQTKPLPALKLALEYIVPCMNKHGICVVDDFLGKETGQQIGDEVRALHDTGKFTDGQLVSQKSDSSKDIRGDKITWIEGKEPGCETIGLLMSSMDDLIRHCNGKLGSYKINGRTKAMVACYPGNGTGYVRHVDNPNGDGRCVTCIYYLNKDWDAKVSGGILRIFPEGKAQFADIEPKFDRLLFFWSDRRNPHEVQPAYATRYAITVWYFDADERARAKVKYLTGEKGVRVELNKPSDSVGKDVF
In short: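 Lysate from HighFive insect cells expressing human PHD2 (4 μg/well) was incubated for 15 min at 37° C with a 19-residue HIF-1α peptide and [14C]-2-oxoglutarate. Unreacted 2-oxoglutarate was precipitated with DNPH and filtered off, and [14C]-succinic acid was counted. Inhibition was calculated relative to substrate-free and compound-free controls.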

human PHD2 [2] = target: T1, human PHD2; assay: Test 2: human PHD2 inhibitory activity, fluorescence polarization assay of HIF-1α peptide proline hydroxylation; assay type: biochemical; details: for IC50: human PHD2, fluorescence polarization assay, 20-min incubation at 30° C.; for inhibition at 1 µM: test compound's concentration 1 μM, Test 2, fluorescence polarization assay, read-out: Percent inhibition (% at 1 μM)
In short: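 Enzyme from lysate of cells expressing human PHD2 (NM_022051), 40 ng/well, added to compound and 19-residue HIF-1α peptide substrate; 20 min at 30° C., EDTA quench. Prolyl hydroxylation detected by HIF-OH antibody binding via fluorescence polarization; inhibition relative to compound-free wells.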

Row | SMILES | inhibition at 1 µM (human PHD2 [1]) [%] | IC50 (human PHD2 [2]) [µM] | inhibition at 1 µM (human PHD2 [2]) [%]
1 | O=C(O)CNC(=O)C1=C(O)CCN(Cc2ccc(Oc3ccc(Cl)cc3)cc2)C1=O [Ex. 1-265] | 98 | 0.024 | 100
2 | O=C(O)CNC(=O)C1=C(O)CC2(CC2)N(Cc2ccc(C3CC3)cc2)C1=O [Ex. 1-266] | 83 |  | 89
3 | O=C(O)CNC(=O)C1=C(O)CC2(CCC2)N(Cc2ccc(OCC3CC3)cc2)C1=O [Ex. 1-267] | 81 |  | 86
4 | Cc1c(CN2CCC(O)=C(C(=O)NCC(=O)O)C2=O)cnn1-c1ccccc1 [Ex. 1-268] | 78 |  | 85
5 | O=C(O)CNC(=O)C1=C(O)CCN(Cc2ccc3c(c2)CCC3)C1=O [Ex. 1-269] | 85 |  | 89
6 | O=C(O)CNC(=O)C1=C(O)CCN(Cc2ccc3sccc3c2)C1=O [Ex. 1-270] | 88 |  | 90
7 | O=C(O)CNC(=O)C1=C(O)CCN(Cc2ccc(OC3CCCC3)cc2)C1=O [Ex. 1-271] | 91 |  | 91
8 | CC1(C)CC(O)=C(C(=O)NCC(=O)O)C(=O)N1Cc1ccc(OC2CCCC2)cc1 [Ex. 1-272] | 65 |  | 82
9 | Cc1ccc(Oc2ccc(CN3CCC(O)=C(C(=O)NCC(=O)O)C3=O)cc2)cn1 [Ex. 1-273] | 99 | 0.112 | 92
10 | O=C(O)CNC(=O)C1=C(O)CCN(Cc2ccc(Oc3ccccc3F)nc2)C1=O [Ex. 1-274] | 92 | 0.108 | 94
11 | Cc1ccccc1Oc1ccc(CN2CCC(O)=C(C(=O)NCC(=O)O)C2=O)cn1 [Ex. 1-275] | 85 | 0.099 | 94
12 | Cc1ccc(Oc2ccc(CN3CC(C)(C)C(O)=C(C(=O)NCC(=O)O)C3=O)cn2)cc1 [Ex. 1-276] | 93 |  | 92
13 | Cc1ccc(Oc2ccc(CN3CC4(CC4)C(O)=C(C(=O)NCC(=O)O)C3=O)cn2)cc1 [Ex. 1-277] | 108 |  | 97
14 | Cc1ccc(Oc2ccc(CN3CC4(CCC4)C(O)=C(C(=O)NCC(=O)O)C3=O)cn2)cc1 [Ex. 1-278] | 93 |  | 94
15 | O=C(O)CNC(=O)C1=C(O)C2(CC2)CN(Cc2ccc(OCC3CC3)cc2)C1=O [Ex. 1-279] | 90 |  | 91
16 | Cc1ccc(Oc2ccc(CN3C(=O)C(C(=O)NCC(=O)O)=C(O)CC34CCC4)cn2)cc1 [Ex. 1-280] | 109 |  | 98
17 | CC1(C)CC(O)=C(C(=O)NCC(=O)O)C(=O)N1Cc1csc(-c2ccccc2)n1 [Ex. 1-281] | 70 |  | 77
18 | O=C(O)CNC(=O)C1=C(O)CCN(Cc2ccc(Oc3ccccc3F)cc2)C1=O [Ex. 1-282] | 101 | 0.077 | 99
19 | Cc1ccccc1Oc1ccc(CN2CCC(O)=C(C(=O)NCC(=O)O)C2=O)cc1 [Ex. 1-283] | 99 | 0.063 | 97
20 | O=C(O)CNC(=O)C1=C(O)CCN(Cc2ccc(Oc3cccc(Cl)c3)nc2)C1=O [Ex. 1-284] | 107 | 0.04 | 103

Row | SMILES | inhibition at 1 µM (human PHD2 [1]) [%] | IC50 (human PHD2 [2]) [µM] | inhibition at 1 µM (human PHD2 [2]) [%]
21 | O=C(O)CNC(=O)C1=C(O)CCN(Cc2ccc(Oc3cccc(C(F)(F)F)c3)nc2)C1=O [Ex. 1-285] | 106 | 0.043 | 100
22 | COc1cccc(Oc2ccc(CN3CCC(O)=C(C(=O)NCC(=O)O)C3=O)cc2)c1 [Ex. 1-286] | 95 | 0.061 | 96
23 | O=C(O)CNC(=O)C1=C(O)CCN(Cc2ccc(Oc3cccc(OC(F)(F)F)c3)nc2)C1=O [Ex. 1-287] | 94 | 0.045 | 104
24 | O=C(O)CNC(=O)C1=C(O)CCN(Cc2ccc(Oc3ccc(F)cn3)cc2)C1=O [Ex. 1-288] | 90 | 0.146 | 91
25 | O=C(O)CNC(=O)C1=C(O)CCN(Cc2ccc(Oc3ccc(Cl)cn3)cc2)C1=O [Ex. 1-289] | 95 | 0.068 | 98
26 | O=C(O)CNC(=O)C1=C(O)CCN(Cc2ccccc2Oc2ccc(F)cc2)C1=O [Ex. 1-290] | 63 |  | 86
27 | O=C(O)CNC(=O)C1=C(O)CCN(Cc2ccc(OCC(F)(F)F)cc2)C1=O [Ex. 1-291] | 75 |  | 86
28 | O=C(O)CNC(=O)C1=C(O)CCN(Cc2ccc(OCC(F)(F)F)c(F)c2)C1=O [Ex. 1-292] | 83 |  | 86
29 | CC1(C)CC(O)=C(C(=O)NCC(=O)O)C(=O)N1Cc1cnc(-c2ccccc2)[nH]1 [Ex. 1-293] | 35 |  | 33
30 | CC1(C)CC(O)=C(C(=O)NCC(=O)O)C(=O)N1Cc1nc(-c2ccccc2)cs1 [Ex. 1-294] | 51 |  | 68
31 | CC1(C)CC(O)=C(C(=O)NCC(=O)O)C(=O)N1Cc1coc(-c2ccccc2)n1 [Ex. 1-295] | 63 |  | 74
32 | O=C(O)CNC(=O)C1=C(O)CCN(Cc2ccc(Oc3ccc(C4CC4)cc3)nc2)C1=O [Ex. 1-296] | 100 | 0.015 | 102
33 | Cc1ccc(Oc2ccc(CN3CCC(O)=C(C(=O)NCC(=O)O)C3=O)cc2)nc1 [Ex. 1-297] | 86 | 0.089 | 94
34 | O=C(O)CNC(=O)C1=C(O)CCN(Cc2ccc(Oc3ccc(C(F)(F)F)cn3)cc2)C1=O [Ex. 1-298] | 84 | 0.079 | 94
35 | Cn1nc(-c2ccccc2)cc1CN1C(=O)C(C(=O)NCC(=O)O)=C(O)CC1(C)C [Ex. 1-299] | 47 |  | 64
36 | Cn1nc(CN2C(=O)C(C(=O)NCC(=O)O)=C(O)CC2(C)C)cc1-c1ccccc1 [Ex. 1-300] | 30 |  | 43
37 | Cc1nc(-c2ccccc2)oc1CN1C(=O)C(C(=O)NCC(=O)O)=C(O)CC1(C)C [Ex. 1-301] | 56 |  | 75
38 | CC1(C)CN(Cc2ccc(OCC3CC3)cc2)C(=O)C(C(=O)NCC(=O)O)=C1O [Ex. 1-302] | 61 |  | 79
39 | Cc1ccc(Oc2ccc(CN3C(=O)C(C(=O)NCC(=O)O)=C(O)CC34CC4)cn2)cc1 [Ex. 1-303] | 102 |  | 100
40 | CC1(C)CN(Cc2ccc(OC(F)(F)F)c(Cl)c2)C(=O)C(C(=O)NCC(=O)O)=C1O [Ex. 1-304] | 35 |  | 72

Further lines, results first:

Row | inhibition at 1 µM (human PHD2 [1]) [%] | IC50 (human PHD2 [2]) [µM] | inhibition at 1 µM (human PHD2 [2]) [%] | SMILES
41 | 94 |  | 97 | Cc1ccc(COc2ccc(CN3CCC(O)=C(C(=O)NCC(=O)O)C3=O)cc2)cc1 [Ex. 1-305]
42 | 94 |  | 99 | O=C(O)CNC(=O)C1=C(O)CCN(Cc2ccc(OCc3cccc(Cl)c3)cc2)C1=O [Ex. 1-306]
43 | 51 |  | 60 | O=C(O)CNC(=O)C1=C(O)CCN(C2CCCCC2)C1=O [Ex. 1-307]
44 | 93 |  | 88 | Cc1ccc(-c2ccc(CN3CCC(O)=C(C(=O)NCC(=O)O)C3=O)cc2)cc1 [Ex. 2-1, N-({4-Hydroxy-1-[(4′-methylbiphenyl-4-yl)methyl]-2-oxo-1,2,5,6-tetrahydropyridin-3-yl}carbonyl)glycine]
45 | 68 |  | 80 | Cn1cc(-c2ccc(CN3CCC(O)=C(C(=O)NCC(=O)O)C3=O)cc2)cn1 [Ex. 2-6]
46 | 88 |  | 91 | O=C(O)CNC(=O)C1=C(O)CCN(Cc2ccc(-c3cccnc3)cc2)C1=O [Ex. 2-7]
47 | 87 |  | 88 | O=C(O)CNC(=O)C1=C(O)CCN(Cc2ccc(-c3cnoc3)cc2)C1=O [Ex. 2-8]
48 | 78 |  | 82 | CC(C)c1cccc(-c2ccc(CN3CCC(O)=C(C(=O)NCC(=O)O)C3=O)cc2)c1 [Ex. 2-9]
49 | 84 |  | 79 | O=C(O)CNC(=O)C1=C(O)CCN(Cc2ccc(-c3ccc(-c4ccccc4)cc3)cc2)C1=O [Ex. 2-10]
50 | 93 |  | 91 | O=C(O)CNC(=O)C1=C(O)CCN(Cc2ccc(-c3ccc(Cl)cc3)cc2)C1=O [Ex. 2-11]
51 | 93 |  | 91 | COc1ccc(-c2ccc(CN3CCC(O)=C(C(=O)NCC(=O)O)C3=O)cc2)cc1 [Ex. 2-12]
52 | 92 |  | 87 | COc1ccc(-c2ccc(CN3CCC(O)=C(C(=O)NCC(=O)O)C3=O)cc2)cn1 [Ex. 2-13]
53 | 98 |  | 93 | N#Cc1ccc(-c2ccc(CN3CCC(O)=C(C(=O)NCC(=O)O)C3=O)cc2)cc1 [Ex. 2-14]
54 | 97 |  | 90 | CN(C)S(=O)(=O)c1ccc(-c2ccc(CN3CCC(O)=C(C(=O)NCC(=O)O)C3=O)cc2)cc1 [Ex. 2-15]
55 | 102 |  | 93 | CC(=O)c1ccc(-c2ccc(CN3CCC(O)=C(C(=O)NCC(=O)O)C3=O)cc2)cc1 [Ex. 2-16]
56 | 94 |  | 87 | Cn1nccc1-c1ccc(CN2CCC(O)=C(C(=O)NCC(=O)O)C2=O)cc1 [Ex. 2-17]
57 | 98 |  | 91 | O=C(O)CNC(=O)C1=C(O)CCN(Cc2ccc(-c3ccsc3)cc2)C1=O [Ex. 2-18]
